In US9868746B2, “Substituted 5-aminothieno[2,3-C]pyridazine-6-carboxamide analogs as positive allosteric modulators of the muscarinic acetylcholine receptor M4” (Vanderbilt University, priority 2012, dated 2018):
Where two headings read alike, the source gives them in different places.

Target: T1, mAChR M4 (Homo sapiens, UniProt P08173)
T1 construct: expressed in transfected cells; host or cells: CHO-K1 cells stably transfected with M4 cDNA and chimeric G-protein Gqi5
T1 sequence (P08173 1-479): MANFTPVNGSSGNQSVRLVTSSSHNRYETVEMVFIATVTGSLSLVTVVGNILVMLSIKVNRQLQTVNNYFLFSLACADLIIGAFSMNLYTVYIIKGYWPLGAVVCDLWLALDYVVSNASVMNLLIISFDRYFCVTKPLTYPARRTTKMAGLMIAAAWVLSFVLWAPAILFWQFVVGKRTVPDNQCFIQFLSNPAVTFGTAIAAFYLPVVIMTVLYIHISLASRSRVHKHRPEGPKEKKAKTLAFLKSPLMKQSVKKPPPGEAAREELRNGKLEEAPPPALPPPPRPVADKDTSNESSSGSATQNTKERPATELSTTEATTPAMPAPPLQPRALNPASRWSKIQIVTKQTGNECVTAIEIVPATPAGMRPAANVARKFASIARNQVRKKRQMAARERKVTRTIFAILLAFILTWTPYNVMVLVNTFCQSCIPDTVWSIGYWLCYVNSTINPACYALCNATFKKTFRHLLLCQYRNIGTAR
Test: mAChR M4 cell-based functional assay (calcium mobilization, potentiation of EC20 acetylcholine response)
Conditions: for Emax at 30 µM: % ACh maximum at 30 μM

[1] = mAChR M4 cell-based functional assay, >10,000 estimated for low potency compounds without plateau, read-out: EC50

| SMILES | Emax at 30 µM [%] | EC50 [1] [nM] | EC50 (EC50 (nM)) [nM] |
| --- | --- | --- | --- |
| COc1ccc(C(=O)N2CC(NC(=O)c3sc4nnc(C)c(C)c4c3N)C2)cc1 [Example B400] | 63 | 52 | – |
| Cc1nnc2sc(C(=O)NCc3ccc(-c4ccc5[nH]ncc5c4C)cc3)c(N)c2c1C [Example B473] | 61 | 89 | – |
| Cc1ccc(S(=O)(=O)N2CCC(NC(=O)c3sc4nnc(C)c(C)c4c3N)C2)s1 (centres unmarked) [Example B215] | 75 | 340 | – |
| Cc1nnc2sc(C(=O)NCc3cccc(-c4ccccc4)c3)c(N)c2c1C [Example B469] | 64 | 430 | – |
| Cc1nnc2sc(C(=O)N3CC4CN(C(=O)C(C)C)CC4C3)c(N)c2c1C (centres unmarked) [Example B388] | 55 | > 10000 | – |
| Cc1nnc2sc(C(=O)N3CC4CN(C(=O)Oc5ccccc5)CC4C3)c(N)c2c1C (centres unmarked) [Example B336] | 49 | 980 | – |
| Cc1nc(C(F)(F)F)c(S(=O)(=O)N2CC(NC(=O)c3sc4nnc(C)c(C)c4c3N)C2)s1 [Example B101] | 66 | 84 | – |
| Cc1nnc2sc(C(=O)NCc3ccc4c(c3)CC(=O)N4)c(N)c2c1C [Example B276] | 67 | 360 | – |
| Cc1nnc2sc(C(=O)N3CC4CN(C(=O)C(C)(C)C)CC4C3)c(N)c2c1C (centres unmarked) [Example B333] | 53 | > 10000 | – |
| COc1ccc(CNC(=O)c2sc3nnc(C)c(C)c3c2N)cn1 [Example B288] | 71 | 150 | – |
| Cc1ccc(S(=O)(=O)N2CC(NC(=O)c3sc4nnc(C)c(C)c4c3N)C2)s1 [Example B98] | 66 | 63 | – |
| Cc1nnc2sc(C(=O)NC3CCN(c4cccc(Cl)c4)C3)c(N)c2c1C (centres unmarked) [Example B268] | 68 | 180 | – |
| Nc1c(C(=O)NCc2ccncc2)sc2nnc(-c3ccccc3)c(-c3ccccc3)c12 [Example B39] | 40 | > 10000 | – |
| Cc1nnc2sc(C(=O)N3CC(S(=O)(=O)c4ccc(F)c(F)c4)C3)c(N)c2c1C [Example B415] | 44 | 1300 | – |
| Cc1nnc2sc(C(=O)N3CC4CN(c5ccc(C#N)cn5)CC4C3)c(N)c2c1C (centres unmarked) [Example B438] | 45 | 170 | – |
| Cc1nnc2sc(C(=O)NCc3ccc(=O)n(C)c3)c(N)c2c1C [Example B444] | 65 | > 10000 | – |

| SMILES | Emax at 30 µM [%] | EC50 [1] [nM] | EC50 (EC50 (nM)) [nM] |
| --- | --- | --- | --- |
| Cc1nnc2sc(C(=O)NC3COC3)c(N)c2c1C [Example B24] | 80 | 520 | – |
| COc1ccc(C2(NC(=O)c3sc4nnc(C)c(C)c4c3N)CC2)cc1 [Example B301] | 48 | 6400 | – |
| Cc1nnc2sc(C(=O)N3CCC(NC(=O)C4CCCCC4)C3)c(N)c2c1C (centres unmarked) [Example B237] | 62 | 3400 | – |
| Cc1nnc2sc(C(=O)NCc3ccn(C)c(=O)c3)c(N)c2c1C [Example B466] | 60 | 1200 | – |
| Cc1nnc2sc(C(=O)N3CC(NC(=O)C4CCCCC4)C3)c(N)c2c1C [Example B185] | 54 | 1800 | – |
| COc1cccc(OC(=O)N2CC(NC(=O)c3sc4nnc(C)c(C)c4c3N)C2)c1 [Example B368] | 69 | 12 | – |
| COc1cncc(-c2ccc(CNC(=O)c3sc4nnc(C)c(C)c4c3N)cc2)c1 [Example B488] | 76 | 49 | – |
| Cc1nnc2sc(C(=O)NCc3ccc4c(cnn4C)c3)c(N)c2c1C [Example B251] | 79 | 190 | – |
| COc1ccc(C(C)CNC(=O)c2sc3nnc(C)c(C)c3c2N)cc1 (centres unmarked) [Example B73] | 40 | 350 | – |
| Cc1nnc2sc(C(=O)NC3CCCC3)c(N)c2c1C [Example B87] | 57 | 280 | – |
| Cc1nnc2sc(C(=O)NCc3ccc([S+](C)[O-])cc3)c(N)c2c1C (centres unmarked) [Example B34] | 82 | – | 140 |
| CS(=O)(=O)c1ccc(CNC(=O)c2sc3nnccc3c2N)cc1 [Example B20] | 41 | > 10000 | – |
| Cc1nnc2sc(C(=O)N3CC4CN(C(=O)C5CC5)CC4C3)c(N)c2c1C (centres unmarked) [Example B332] | 58 | 1600 | – |
| COc1cccc(C2(F)CN(C(=O)c3sc4nnc(C)c(C)c4c3N)C2)c1 [Example B300] | 52 | 330 | – |
| Cc1c(CN2CCOCC2)nnc2sc(C(=O)NCc3ccc(S(=O)(=O)C(F)(F)F)cc3)c(N)c12 [Example B324] | 72 | 460 | – |
